Read-outs that look alike come from different tables or passages of the source.

Test [1] concerns Haemonchus contortus. Kind of test: Haemonchus contortus larvacidal (larval development) assay. Conditions: 144 h, read-out: Haemonchus contortus LD99. In kind it is in vivo. As for the experimental part:
a) Haemonchus Contortus Larvacidal Assay:
The effect of compounds on larval development was determined in the assay described by Gill et al. (1995, International Journal of Parasitology 25:463-470). Briefly, in this assay, nematode eggs were applied to the surface of an agar matrix containing the test compound and then allowed to develop through to the L3, infective stage (6 days). The wells for each dilution of every compound (from highest to lowest concentration) were inspected to determine the well number corresponding to the lowest concentration at which development was inhibited in 99% of the nematode larvae present (LD99). Because well numbers correspond to a two-fold serial dilution of each compound, a titre (dilution factor) is generated as 2^n−1, where n is the well number. By dividing the highest concentration tested by the titre an LD99 value can be obtained, representing the concentration required to inhibit development in 99% of the nematode larvae present. The compounds supplied as solid and viscous liquids were dissolved in DMSO. Twelve serial one-half dilutions in DMSO solution were prepared from the stock solution, each of which was then diluted ⅕ with water. Aliquots (10 μl) of each dilution were transferred to the bioassay plates to give a final concentration range of 0.024 to 50 μg/ml.

Test [2] concerns cat flea (Ctenocephalides felis). Briefly: whole plant or invertebrate. Conditions: Ctenocephalides felis; for mortality at 1.26 µg/cm2, 1.26 µg/cm2: Laboratory 1 A data. Format: in vivo. In a few lines: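 Single-dose screen at 1.26 μg/cm^2: acetone solution dried for 24 h on a Coatasil-treated 159 mm^2 flask base, then 15 adult cat fleas aged 3-7 days per flask, four or more replicates, acetone control. Percent dead, meaning not moving or unable to right themselves, recorded after 8, 24 and/or 48 h at 25 °C and 75% RH.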

[3] abbreviates: 8 h, read-out: C. felis Mortality (%) 8 h, 8 h.
The mark [4] stands for this setting: 24 h, read-out: C. felis Mortality (%) 24 h, 24 h.
Setting [5] is: lowest concentration inhibiting development in 99% of larvae, eggs to L3, 6 days, range 0.024 to 50 μg/ml.
The mark [6] stands for this setting: 8 h, read-out: Ctenocephalides felis Mortality (%) 8 h.
[7] abbreviates: 24 h, read-out: Ctenocephalides felis Mortality (%) 24 h.

What is called mortality is the percentage killed. In the case of `CC/C(=N\OCc1ccc(C(C)(C)C)cc1)c1cc(Cl)ccc1NS(=O)(=O)C(F)(F)F` [Compound 5], the IC99 in test [1] came out at 3.3 µg/mL. For the same compound, the mortality at 1.26 µg/cm2, 1.26 µg/cm2 in test [2] (setting [3]) is 8%.

As to `C/C(=N\Oc1ccc(Br)cc1)c1cc(Cl)ccc1NS(=O)(=O)C(F)(F)F` [Compound 137], in test [1], the IC99 was found to be 0.4 µg/mL. Also, the mortality at 1.26 µg/cm2, 1.26 µg/cm2 in test [2] (setting [4]) amounted to 91%.

In the case of `CC(C)/C(=N\OCc1ccc(C(F)(F)F)cc1C(F)(F)F)c1cc(Cl)ccc1NS(=O)(=O)C(F)(F)F` [Compound 116, N-{2-[1-(2,4-bistrifluoromethylbenzyloxyimino)-2-methylpropyl]-4-chlorophenyl}trifluoromethanesulfonamide], in test [1], the IC99 was 0.9 µg/mL. The mortality at 1.26 µg/cm2, 1.26 µg/cm2 in test [2] (setting [3]) worked out at 10%.

For the compound `O=S(=O)(Nc1ccc(Cl)cc1/C=N/OCc1ccc(Br)cc1)C(F)(F)F` [Compound 96], the IC99 in test [1] was 0.7 µg/mL. In test [2] (setting [4]), the mortality at 1.26 µg/cm2, 1.26 µg/cm2 is 21%.

For `O=S(=O)(Nc1ccc(Cl)cc1-c1cc(-c2ccc(Cl)c(Cl)c2)on1)C(F)(F)F` [Compound 230], in test [1] (setting [5]), the IC99 was determined as 0.4 µg/mL. Also, the mortality at 1.26 µg/cm2 in test [2] (setting [6]) was determined as 8%; in test [2] (setting [7]) it was 15%.

In the case of `O=S(=O)(Nc1ccc(Cl)cc1/C(=N/OCc1ccc(Cl)cc1Cl)c1ccccc1)C(F)(F)F` [Compound 61], the IC99 in test [1] came to 1.7 µg/mL. For the same compound, in test [2] (setting [3]), the mortality at 1.26 µg/cm2, 1.26 µg/cm2 is 17%.

In the case of `CC/C(=N\OCc1cc(Br)cc(Br)c1)c1cc(Cl)ccc1NS(=O)(=O)C(F)(F)F` [Compound 109], the IC99 in test [1] was determined as 2.8 µg/mL. Besides, the mortality at 1.26 µg/cm2, 1.26 µg/cm2 in test [2] (setting [3]) amounted to 3%.

Consider `C/C(=N\Oc1ccc(Cl)c(Cl)c1)c1cc(Cl)ccc1NS(=O)(=O)C(F)(F)F` [Compound 140], for which the IC99 in test [1] came to 0.7 µg/mL. Besides, the mortality at 1.26 µg/cm2, 1.26 µg/cm2 in test [2] (setting [4]) was determined as 71%.

In the case of `CC/C(=N\Oc1ccc(Br)cc1)c1cc(Cl)ccc1NS(=O)(=O)C(F)(F)F` [Compound 138], the IC99 in test [1] was 1.7 µg/mL. The mortality at 1.26 µg/cm2, 1.26 µg/cm2 in test [2] (setting [4]) was 78%.

As to `O=S(=O)(Nc1ccc(Cl)cc1/C(=N/OCc1ccc(Cl)c(Cl)c1)c1ccccc1)C(F)(F)F` [Compound 87, N-{4-chloro-2-[(3,4-dichlorobenzyloxyimino)phenylmethyl]phenyl}trifluoromethanesulfonamide], the IC99 in test [1] is 1.3 µg/mL. The mortality at 1.26 µg/cm2, 1.26 µg/cm2 in test [2] (setting [3]) is 5%.

Take `C/C(=N\Oc1ccc(C#N)cc1)c1cc(Cl)ccc1NS(=O)(=O)C(F)(F)F` [Compound 135]: the IC99 in test [1] stood at 3 µg/mL. Also, the mortality at 1.26 µg/cm2, 1.26 µg/cm2 in test [2] (setting [4]) is 47%.

In the case of `O=S(=O)(Nc1ccc(Cl)cc1/C(=N/OCc1ccc(C(F)(F)F)cc1C(F)(F)F)c1ccccc1)C(F)(F)F` [Compound 78], the IC99 in test [1] is 1.8 µg/mL. Moreover, the mortality at 1.26 µg/cm2, 1.26 µg/cm2 in test [2] (setting [3]) is 21%.

As for `C/C(=N\OCc1ccc(C(F)(F)F)cc1C(F)(F)F)c1cc(F)ccc1NS(=O)(=O)C(F)(F)F` [Compound 121], the IC99 in test [1] turned out to be 0.6 µg/mL. For the same compound, the mortality at 1.26 µg/cm2, 1.26 µg/cm2 in test [2] (setting [3]) was found to be 3%.

Take `O=S(=O)(Nc1ccc(Cl)cc1-c1cc(-c2ccc(F)cc2F)on1)C(F)(F)F` [Compound 231, N-{4-chloro-2-[5-(2,4-difluorophenyl)isoxazol-3-yl]phenyl}trifluoromethanesulfonamide]: the IC99 in test [1] (setting [5]) came out at 0.6 µg/mL. In addition, the mortality at 1.26 µg/cm2 in test [2] (setting [7]) was 7%.

Regarding `C/C(=N\OCc1ccc(Cl)cc1Cl)c1cc(Cl)ccc1NS(=O)(=O)C(F)(F)F` [Compound 21], the IC99 in test [1] worked out at 0.7 µg/mL. Further, in test [2] (setting [3]), the mortality at 1.26 µg/cm2, 1.26 µg/cm2 came to 5%.

With `CCC/C(=N\OCc1ccc(C(F)(F)F)cc1)c1cc(Cl)ccc1NS(=O)(=O)C(F)(F)F` [Compound 92], the IC99 in test [1] was found to be 1.6 µg/mL. Moreover, the mortality at 1.26 µg/cm2, 1.26 µg/cm2 in test [2] (setting [3]) was determined as 36%.

Regarding `CC/C(=N\Oc1cccc(C(F)(F)F)c1)c1cc(Cl)ccc1NS(=O)(=O)C(F)(F)F` [Compound 133], the IC99 in test [1] turned out to be 0.9 µg/mL. For the same compound, in test [2] (setting [4]), the mortality at 1.26 µg/cm2, 1.26 µg/cm2 was 71%.

Consider `CC(C)/C(=N\OCc1ccc(C(F)(F)F)cc1)c1cc(Cl)ccc1NS(=O)(=O)C(F)(F)F` [Compound 108], for which, in test [1], the IC99 was determined as 1.3 µg/mL. Moreover, the mortality at 1.26 µg/cm2, 1.26 µg/cm2 in test [2] (setting [3]) stood at 12%.

In the case of `C/C(=N\OCc1ccc(C(F)(F)F)cc1C(F)(F)F)c1cc(Cl)ccc1NS(=O)(=O)C(F)(F)F` [Compound 2, N-{2-[1-(2,4-bistrifluoromethylbenzyloxyimino)ethyl]-4-chlorophenyl}trifluoromethanesulfonamide], the IC99 in test [1] is 0.1 µg/mL. Besides, the mortality at 1.26 µg/cm2, 1.26 µg/cm2 in test [2] (setting [3]) came to 2%.

With `CC/C(=N\OC/C=C/c1ccccc1)c1cc(Cl)ccc1NS(=O)(=O)C(F)(F)F` [Compound 85], the IC99 in test [1] came to 1.6 µg/mL. Moreover, in test [2] (setting [3]), the mortality at 1.26 µg/cm2, 1.26 µg/cm2 was 6%.

Consider `C/C(=N\OCC=C(Cl)Cl)c1cc(Cl)ccc1NS(=O)(=O)C(F)(F)F` [Compound 38], for which the IC99 in test [1] was 0.9 µg/mL. The mortality at 1.26 µg/cm2, 1.26 µg/cm2 in test [2] (setting [3]) was found to be 8%.

For `O=S(=O)(Nc1ccc(Cl)cc1-c1cc(-c2ccc(Cl)cc2)on1)C(F)(F)F` [Compound 227], the IC99 in test [1] (setting [5]) stood at 0.1 µg/mL. Also, the mortality at 1.26 µg/cm2 was 7% in test [2] (setting [6]) and 9% in test [2] (setting [7]).

For `O=S(=O)(Nc1ccc(Cl)cc1/C=N/OCc1ccc(Cl)cc1Cl)C(F)(F)F` [Compound 67], in test [1], the IC99 was 0.9 µg/mL. Also, the mortality at 1.26 µg/cm2, 1.26 µg/cm2 in test [2] (setting [3]) was 12%.

`C/C(=N\OCc1ccc(C(F)(F)F)cc1)c1cc(Cl)ccc1NS(=O)(=O)C(F)(F)F` [Compound 14]: the IC99 in test [1] came to 0.9 µg/mL. Moreover, the mortality at 1.26 µg/cm2, 1.26 µg/cm2 in test [2] (setting [3]) was determined as 2%.

Consider `CC/C(=N\Oc1ccc(C#N)cc1)c1cc(Cl)ccc1NS(=O)(=O)C(F)(F)F` [Compound 136], for which, in test [1], the IC99 amounted to 2.5 µg/mL. Besides, the mortality at 1.26 µg/cm2, 1.26 µg/cm2 in test [2] (setting [4]) turned out to be 74%.

Take `C/C(=N\OCc1c(Cl)cccc1Cl)c1cc(Cl)ccc1NS(=O)(=O)C(F)(F)F` [Compound 20]: the IC99 in test [1] came out at 12 µg/mL.

As to `CCC/C(=N\OCc1cc(Br)cc(Br)c1)c1cc(Cl)ccc1NS(=O)(=O)C(F)(F)F` [Compound 113], the IC99 in test [1] was found to be 3.8 µg/mL.

For `C/C(=N\OCc1ccccc1)c1cc(Cl)ccc1NS(=O)(=O)C(F)(F)F` [Compound 22], in test [1], the IC99 came to 6 µg/mL.

With `CC/C(=N\OCCCc1ccccc1)c1cc(Cl)ccc1NS(=O)(=O)C(F)(F)F` [Compound 105], the IC99 in test [1] stood at 3.5 µg/mL.

For `O=S(=O)(Nc1ccc(Cl)cc1/C=N/OCc1ccc(Cl)cc1)C(F)(F)F` [Compound 81], in test [1], the IC99 was found to be 1.7 µg/mL.

On to `CC(C)/C(=N\OCc1ccc(Cl)cc1)c1cc(Cl)ccc1NS(=O)(=O)C(F)(F)F` [Compound 117], for which the IC99 in test [1] turned out to be 3.5 µg/mL.

Regarding `CC/C(=N\OCc1ccc(F)cc1)c1cc(Cl)ccc1NS(=O)(=O)C(F)(F)F` [Compound 86], the IC99 in test [1] came to 3.5 µg/mL.

For the compound `O=S(=O)(Nc1ccc(Cl)cc1/C(=N/OCc1cccc(Cl)c1)c1ccccc1)C(F)(F)F` [Compound 71], the IC99 in test [1] stood at 3 µg/mL.

On to `N#Cc1ccc(CO/N=C(\c2ccccc2)c2cc(Cl)ccc2NS(=O)(=O)C(F)(F)F)cc1` [Compound 80], for which the IC99 in test [1] is 3.5 µg/mL.

For the compound `CCC/C(=N\OCCc1ccccc1)c1cc(Cl)ccc1NS(=O)(=O)C(F)(F)F` [Compound 110], the IC99 in test [1] is 5 µg/mL.

Consider `C/C(=N\OCc1cccc(Cl)c1Cl)c1cc(Cl)ccc1NS(=O)(=O)C(F)(F)F` [Compound 19], for which the IC99 in test [1] is 0.7 µg/mL.

Turning to `CC(C)/C(=N\OCc1ccc(Cl)cc1Cl)c1cc(Cl)ccc1NS(=O)(=O)C(F)(F)F` [Compound 119], the IC99 in test [1] is 1.2 µg/mL.
